Patent publication US20260184663A1, “INDENE COMPOUNDS, PHARMACEUTICAL COMPOSITIONS THEREOF, AND THEIR THERAPEUTIC APPLICATIONS” (NucMito Pharmaceuticals co. Ltd., priority 2022, published 2026)

Key:
Assay type in all cases: cell-based
[1] = tested on: HepG2 (liver cancer); assay: Antiproliferative activity (CCK-8 cell viability), HepG2; settings: Homo sapiens, 72 h, read-out: Antiproliferative activity in cancerous cells, HepG2 (inhibition of cell growth); for inhibition at 3.3 µM: Compound concentration: 3.3 μM; for inhibition at 10 µM: Compound concentration: 10 μM
In short: (§1)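 Cells grown in DMEM (HepG2, SW480), MEM (HeLa) or F-12K (A549), each with 10% FBS, then exposed to compound at 3.3, 10 or 30 μM for 72 h at 37 °C. CCK-8 absorbance at 450 nm; viability expressed as percent of DMSO-treated cells, graded as growth inhibition bands.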

[2] = tested on: SW480 (colon cancer); assay: Antiproliferative activity (CCK-8 cell viability), SW480; settings: Homo sapiens, 72 h, read-out: Antiproliferative activity in cancerous cells, SW480 (inhibition of cell growth); for inhibition at 3.3 µM: Compound concentration: 3.3 μM; for inhibition at 10 µM: Compound concentration: 10 μM
In short: as §1

[3] = tested on: A549 (lung adenocarcinoma); assay: Antiproliferative activity (CCK-8 cell viability), A549; settings: Homo sapiens, 72 h, read-out: Antiproliferative activity in cancerous cells, A549 (inhibition of cell growth); for inhibition at 3.3 µM: Compound concentration: 3.3 μM; for inhibition at 10 µM: Compound concentration: 10 μM
In short: as §1

[4] = tested on: A431 (epidermoid carcinoma); assay: Antiproliferative activity (CCK-8 cell viability), A431; settings: Homo sapiens, 72 h, read-out: Antiproliferative activity in cancerous cells, A431 (inhibition of cell growth); for inhibition at 3.3 µM: A-431, Compound concentration: 3.3 μM; for inhibition at 10 µM: A-431, Compound concentration: 10 μM
In short: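 A431 epidermoid carcinoma cells grown in DMEM with 10% FBS were plated at 2,000-5,000 cells/well in 96-well plates. After attachment they were exposed to compound at 3.3 μM, 10 μM, or 30 μM for 72 h at 37° C. Viability was then assessed by CCK-8 against DMSO vehicle-treated wells.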

[5] = tested on: B16F10 (malignant melanoma); assay: Antiproliferative activity (CCK-8 cell viability), B16F10; settings: Mus musculus, 72 h, read-out: Antiproliferative activity in cancerous cells, B16F10 (inhibition of cell growth); for inhibition at 3.3 µM: B16-F10, Compound concentration: 3.3 μM; for inhibition at 10 µM: B16-F10, Compound concentration: 10 μM
In short: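 B16F10 melanoma cells grown in DMEM with 10% FBS were plated in 96-well plates at 2,000-5,000 cells/well. After attachment they were exposed to compound in medium for 72 h at 37° C. CCK-8 solution (10 μL) was then added, and after 4 h at 37° C absorbance was read at 450 nm.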

[6] = tested on: HeLa (cervical cancer); assay: Antiproliferative activity (CCK-8 cell viability), HeLa; settings: Homo sapiens, 72 h, read-out: Antiproliferative activity in cancerous cells, HELA (inhibition of cell growth); for inhibition at 3.3 µM: Compound concentration: 3.3 μM; for inhibition at 10 µM: Compound concentration: 10 μM
In short: as §1

[7] = tested on: MDA-MB-231 (breast cancer); assay: Antiproliferative activity (CCK-8 cell viability), MDA-MB-231; settings: Homo sapiens, 72 h, read-out: Antiproliferative activity in cancerous cells, MDA-MB-231 (inhibition of cell growth); for inhibition at 3.3 µM: Compound concentration: 3.3 μM; for inhibition at 10 µM: Compound concentration: 10 μM
In short: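 MDA-MB-231 breast cancer cells, grown in DMEM with 10% FBS, were plated in 96-well plates at 2,000-5,000 cells/well. Once attached, they were exposed to compound and incubated at 37° C. for 72 h. Viability was then measured with CCK-8 (10 μL per well, 4 h at 37° C.) by absorbance at 450 nm, relative to DMSO vehicle wells.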

CC1=C(CC(=O)O)c2cc(F)ccc2/C1=C\c1ccc(CCCc2ccc(Cl)cc2)cc1 [B119, (Z)-2-(1-(4-(3-(4-Chlorophenyl)propyl)benzylidene)-5-fluoro-2-methyl-1H-inden-3-yl)acetic acid]
inhibition at 3.3 µM [1]: ≥ 50% | inhibition at 10 µM [1]: ≥ 50% | inhibition at 3.3 µM [2]: ≥ 50% | inhibition at 10 µM [2]: ≥ 50% | inhibition at 3.3 µM [3]: 30 to 50% | inhibition at 10 µM [3]: ≥ 50% | inhibition at 3.3 µM [4]: ≥ 50% | inhibition at 10 µM [4]: ≥ 50% | inhibition at 3.3 µM [5]: < 30% | inhibition at 10 µM [5]: ≥ 50% | inhibition at 3.3 µM [6]: < 30% | inhibition at 10 µM [6]: ≥ 50% | inhibition at 3.3 µM [7]: < 30% | inhibition at 10 µM [7]: < 30%

CC1=C(CC(=O)O)c2cc(Br)ccc2/C1=C\c1ccc(COCc2ccc(Cl)cc2)cc1 [B120, (Z)-2-(5-Bromo-1-(4-(((4-chlorobenzyl)oxy)methyl)benzylidene)-2-methyl-1H-inden-3-yl)acetic acid]
inhibition at 3.3 µM [1]: 30 to 50% | inhibition at 10 µM [1]: ≥ 50% | inhibition at 3.3 µM [2]: < 30% | inhibition at 10 µM [2]: ≥ 50% | inhibition at 3.3 µM [3]: 30 to 50% | inhibition at 10 µM [3]: ≥ 50% | inhibition at 3.3 µM [4]: ≥ 50% | inhibition at 10 µM [4]: ≥ 50% | inhibition at 3.3 µM [5]: < 30% | inhibition at 10 µM [5]: < 30% | inhibition at 3.3 µM [6]: ≥ 50% | inhibition at 10 µM [6]: ≥ 50% | inhibition at 3.3 µM [7]: < 30% | inhibition at 10 µM [7]: < 30%

CCc1ccc2c(c1)/C(=C\c1ccc(COCc3ccc(F)cc3)cc1)C(C)=C2CC(=O)O [B121, (Z)-2-(6-Ethyl-1-(4-(((4-fluorobenzyl)oxy)methyl)benzylidene)-2-methyl-1H-inden-3-yl)acetic acid]
inhibition at 3.3 µM [1]: < 30% | inhibition at 10 µM [1]: ≥ 50% | inhibition at 3.3 µM [2]: < 30% | inhibition at 10 µM [2]: 30 to 50% | inhibition at 3.3 µM [3]: 30 to 50% | inhibition at 10 µM [3]: ≥ 50% | inhibition at 3.3 µM [4]: ≥ 50% | inhibition at 10 µM [4]: ≥ 50% | inhibition at 3.3 µM [5]: 30 to 50% | inhibition at 10 µM [5]: 30 to 50% | inhibition at 3.3 µM [6]: < 30% | inhibition at 10 µM [6]: ≥ 50% | inhibition at 3.3 µM [7]: < 30% | inhibition at 10 µM [7]: < 30%

CCc1ccc2c(c1)C(CC(=O)O)=C(C)/C2=C/c1ccc(COCc2ccc(Cl)cc2)cc1 [B122, (Z)-2-(1-(4-(((4-Chlorobenzyl)oxy)methyl)benzylidene)-5-ethyl-2-methyl-1H-inden-3-yl)acetic acid]
inhibition at 3.3 µM [1]: ≥ 50% | inhibition at 10 µM [1]: ≥ 50% | inhibition at 3.3 µM [2]: 30 to 50% | inhibition at 10 µM [2]: ≥ 50% | inhibition at 3.3 µM [3]: 30 to 50% | inhibition at 10 µM [3]: ≥ 50% | inhibition at 3.3 µM [4]: ≥ 50% | inhibition at 10 µM [4]: ≥ 50% | inhibition at 3.3 µM [5]: 30 to 50% | inhibition at 10 µM [5]: ≥ 50% | inhibition at 3.3 µM [6]: < 30% | inhibition at 10 µM [6]: ≥ 50% | inhibition at 3.3 µM [7]: < 30% | inhibition at 10 µM [7]: ≥ 50%

CC1=C(CC(=O)O)c2cc(C)ccc2/C1=C\c1ccc(CCCc2ccc(Cl)cc2)cc1 [B123, (Z)-2-(1-(4-(3-(4-Chlorophenyl)propyl)benzylidene)-2,5-dimethyl-1H-inden-3-yl)acetic acid]
inhibition at 3.3 µM [1]: 30 to 50% | inhibition at 10 µM [1]: ≥ 50% | inhibition at 3.3 µM [2]: 30 to 50% | inhibition at 10 µM [2]: ≥ 50% | inhibition at 3.3 µM [3]: ≥ 50% | inhibition at 10 µM [3]: ≥ 50% | inhibition at 3.3 µM [4]: ≥ 50% | inhibition at 10 µM [4]: ≥ 50% | inhibition at 3.3 µM [5]: ≥ 50% | inhibition at 10 µM [5]: ≥ 50% | inhibition at 3.3 µM [6]: < 30% | inhibition at 10 µM [6]: ≥ 50% | inhibition at 3.3 µM [7]: < 30% | inhibition at 10 µM [7]: ≥ 50%

CC1=C(CC(=O)O)c2cc(Cl)ccc2/C1=C\c1ccc(CCCc2ccc(F)cc2)cc1 [B125, (Z)-2-(5-Chloro-1-(4-(3-(4-fluorophenyl)propyl)benzylidene)-2-methyl-1H-inden-3-yl)acetic acid]
inhibition at 3.3 µM [1]: ≥ 50% | inhibition at 10 µM [1]: ≥ 50% | inhibition at 3.3 µM [2]: < 30% | inhibition at 10 µM [2]: ≥ 50% | inhibition at 3.3 µM [3]: < 30% | inhibition at 10 µM [3]: ≥ 50% | inhibition at 3.3 µM [4]: ≥ 50% | inhibition at 10 µM [4]: ≥ 50% | inhibition at 3.3 µM [5]: ≥ 50% | inhibition at 10 µM [5]: ≥ 50% | inhibition at 3.3 µM [6]: ≥ 50% | inhibition at 10 µM [6]: ≥ 50% | inhibition at 3.3 µM [7]: 30 to 50% | inhibition at 10 µM [7]: ≥ 50%

COc1ccc(CCCc2ccc(/C=C3/C(C)=C(CC(=O)O)c4cc(F)ccc43)cc2)cc1 [B126, (Z)-2-(5-Fluoro-1-(4-(3-(4-methoxyphenyl)propyl)benzylidene)-2-methyl-1H-inden-3-yl)acetic acid]
inhibition at 3.3 µM [1]: 30 to 50% | inhibition at 10 µM [1]: ≥ 50% | inhibition at 3.3 µM [2]: < 30% | inhibition at 10 µM [2]: ≥ 50% | inhibition at 3.3 µM [3]: < 30% | inhibition at 10 µM [3]: ≥ 50% | inhibition at 3.3 µM [4]: < 30% | inhibition at 10 µM [4]: ≥ 50% | inhibition at 3.3 µM [5]: < 30% | inhibition at 10 µM [5]: ≥ 50% | inhibition at 3.3 µM [6]: 30 to 50% | inhibition at 10 µM [6]: ≥ 50% | inhibition at 3.3 µM [7]: ≥ 50% | inhibition at 10 µM [7]: ≥ 50%

COc1ccc(CCCc2ccc(/C=C3/C(C)=C(CC(=O)O)c4cc(Cl)ccc43)cc2)cc1 [B127, (Z)-2-(5-Chloro-1-(4-(3-(4-methoxyphenyl)propyl)benzylidene)-2-methyl-1H-inden-3-yl)acetic acid]
inhibition at 3.3 µM [1]: ≥ 50% | inhibition at 10 µM [1]: ≥ 50% | inhibition at 3.3 µM [2]: < 30% | inhibition at 10 µM [2]: ≥ 50% | inhibition at 3.3 µM [3]: ≥ 50% | inhibition at 10 µM [3]: ≥ 50% | inhibition at 3.3 µM [4]: ≥ 50% | inhibition at 10 µM [4]: ≥ 50% | inhibition at 3.3 µM [5]: ≥ 50% | inhibition at 10 µM [5]: ≥ 50% | inhibition at 3.3 µM [6]: ≥ 50% | inhibition at 10 µM [6]: ≥ 50% | inhibition at 3.3 µM [7]: ≥ 50% | inhibition at 10 µM [7]: ≥ 50%

COc1ccc(CCCc2ccc(/C=C3/C(C)=C(CC(=O)O)c4cc(Br)ccc43)cc2)cc1 [B128, (Z)-2-(5-Bromo-1-(4-(3-(4-methoxyphenyl)propyl)benzylidene)-2-methyl-1H-inden-3-yl)acetic acid]
inhibition at 3.3 µM [1]: ≥ 50% | inhibition at 10 µM [1]: ≥ 50% | inhibition at 3.3 µM [2]: ≥ 50% | inhibition at 10 µM [2]: ≥ 50% | inhibition at 3.3 µM [3]: ≥ 50% | inhibition at 10 µM [3]: ≥ 50% | inhibition at 3.3 µM [4]: ≥ 50% | inhibition at 10 µM [4]: ≥ 50% | inhibition at 3.3 µM [5]: ≥ 50% | inhibition at 10 µM [5]: ≥ 50% | inhibition at 3.3 µM [6]: ≥ 50% | inhibition at 10 µM [6]: ≥ 50% | inhibition at 3.3 µM [7]: ≥ 50% | inhibition at 10 µM [7]: ≥ 50%

CC1=C(CC(=O)O)c2cc(F)ccc2/C1=C\c1ccc(CCCc2ccc(O)cc2)cc1 [B129, (Z)-2-(5-Fluoro-1-(4-(3-(4-hydroxyphenyl)propyl)benzylidene)-2-methyl-1H-inden-3-yl)acetic acid]
inhibition at 3.3 µM [1]: < 30% | inhibition at 10 µM [1]: ≥ 50% | inhibition at 3.3 µM [2]: < 30% | inhibition at 10 µM [2]: < 30% | inhibition at 3.3 µM [3]: 30 to 50% | inhibition at 10 µM [3]: ≥ 50% | inhibition at 3.3 µM [4]: < 30% | inhibition at 10 µM [4]: ≥ 50% | inhibition at 3.3 µM [5]: ≥ 50% | inhibition at 10 µM [5]: ≥ 50% | inhibition at 3.3 µM [6]: < 30% | inhibition at 10 µM [6]: ≥ 50% | inhibition at 3.3 µM [7]: ≥ 50% | inhibition at 10 µM [7]: ≥ 50%
